Data reported in patent US10993959B2, “Methods and compositions for increasing the suppressive function of regulatory T-cells (Tregs)” (Regents of the University of Minnesota, priority 2015, dated 2021).
“Also recorded” adds a separate entry of the source.

What was measured:
[1] = system: Tcon-APC interactions; test: multi-photon microscopy on D4 after transplant; format: in vivo, mouse; details: AEB071-treated Tregs vs DMSO
Description: (§1) As Tregs exert much of their protective effect against GVHD early in the course of the disease, proliferation of GVHD-causing conventional T-cells (Tcon) on D4 after transplant was analyzed. […] Multi-photon microscopy on D4 was performed after transplant using TEα-GFP Tcon, CD11c-eYFP antigen presenting cells (APCs) and wild-type Tregs.

[2] = system: splenic Tregs; test: flow cytometry of Tregs from acute GVHD recipients; format: in vivo, mouse; details: AEB071 vs DMSO treated Tregs isolated from acute GVHD mice
[3] = biological target: T1, PKC-θ/vimentin (Mus musculus, UniProt Q02111); test: confocal microscopy of PKC-θ and vimentin staining in activated Tregs; format: cell-based
T1 construct: endogenous in cells
Description: FIG. 8A are photographs of the results of experiments in which Tregs were pre-treated with DMSO (control), AEB071, or vimentin siRNA, then activated. PKC-θ and vimentin staining were analyzed by confocal microscopy.
Since PKC-θ localization and function appear to be linked, experiments were performed to understand whether PKC-θ inhibition modulated PKC-θ localization. Consistent with previous work, PKC-θ accumulated at the distal pole of control Tregs after 5 minutes of anti-CD3/CD28 mAb activation (FIG. 8A, top).

[4] = system: phosphorylated proteins in activated Tregs; test: flow cytometry analysis of phosphorylated proteins (phosphoflow) in Tregs; format: cell-based, mouse
Description: In addition, the mTORC2-specific phosphorylation site on Akt, serine 473, was reduced, whereas the […] phosphorylation site, threonine 308, was unaltered. […] As both mTORC1 and mTORC2 are involved in T-cell metabolism, the effect of AEB071 treatment on Treg oxygen consumption rate (OCR) was investigated. […] Increased OCR has been associated with increased Treg function. […]
Since PKC-θ inhibition modulated Treg metabolism and mTORC2 function, experiments were performed to determine whether vimentin siRNA might have a similar effect. […] Since mTORC2 signaling was reduced after PKC-θ inhibition, it was hypothesized that mTORC2 activity also could be reduced after treatment with vimentin siRNA.

[5] = system: acute GVHD; test: mouse MHC class I/II disparate acute GVHD model; format: in vivo
Description: (§2) Lethally irradiated BALB/c mice were given 10e6 C57BL/6 bone marrow only (BM), or BM with 2e6 CD4+25−/CD8+25− Tcon cells without (BM+T) or with 1e6 Tregs treated with either DMSO (DMSO) or 10 μM AEB071 (AEB071) for 30 minutes. […] Tregs were treated with DMSO or AEB071 as above, and activated overnight with plate bound anti-CD3/28 and IL-2. […] […] Tregs were treated with DMSO or AEB071 and activated as above. […] Tregs were transfected with vimentin siRNA (vim) or control (GFP), and activated for 36 hours. CFSE-labeled Tcon were mixed with T-cell depleted splenocytes and soluble anti-CD3 mAb. Treg:Tcon ratios of 1:1-1:27 were plated and CFSE dilution assessed after 3 days.
(§3) FIG. 9A is a graph showing the percent survival of recipients. Tregs were transfected with either control (non-targeting) or vimentin siRNA. Recipient mice were given BM alone, BM+Tcon (BM+T), or BM+Tcon+Tregs; Tregs pre-treated with control or vimentin siRNA. […] Bars show mean±SEM. Survival differences analyzed by log-rank test. *, p<0.05; **, P<0.01; ***, P<0.0001; ****, p<0.00001 (Student's t-tests or one-way ANOVA with Tukey's post-test).
as §3, with “9B” for “9A”, “clinical GVHD scores (0=no disease, 10=most severe disease) for” for “percent survival of”
as §1, with “Tregs. […]” for “Tregs.”

[6] = system: Tregs; test: flow cytometry of marker expression in activated Tregs; format: cell-based, mouse
Description: as §2
Bars show mean±SEM. *, p<0.05; **, P<0.01; ***, P<0.0001; ****, p<0.00001 (Student's t-tests or one-way ANOVA with Tukey's post-test).
Ratios of 0:1, 1:1, 1:3, 1:9 and 1:27 Treg:Teff were made. Four replicates of each ratio were made and plated in a 96-well, round bottom plate. After 3 days in culture, the cells from each well were harvested, washed with PBS and then stained with antibodies for flow cytometry analysis of CFSE dilution (proliferation) of CD4 and CD8 Tcon. The antibodies used were as follows: CD4-BV510, CD8-PE-ef610, CD25-BV605, Nrp1-PerCP-ef710, Lag3-APC, Fixable viability dye-APC-ef780, Foxp3-PE-Cy7, and Vimentin-PE.

[7] = system: Tregs; test: Treg metabolic activity (OCR, ECAR, BoDipyC1-C12 uptake); format: cell-based, mouse; details: AEB071 vs DMSO, after activation
Description: as §2
FIG. 9C is a graph showing basal and maximal oxygen consumption rate (OCR) and extracellular acidification rate (ECAR) measured after transfection. Tregs were transfected with either control (non-targeting) or vimentin siRNA. […] Bars show mean±SEM. Survival differences analyzed by log-rank test. *, p<0.05; **, P<0.01; ***, P<0.0001; ****, p<0.00001 (Student's t-tests or one-way ANOVA with Tukey's post-test).

[8] = system: Tcon; test: in vitro Treg suppression, Tcon type not specified; format: cell-based, mouse
Description: as §2
On day 3 after transfection, CD4/8 Tcon and T-cell depleted splenoctyes were isolated for a suppression assay. CD4/CD8 Tcon were purified from spleen of CD45.1 C57BL/6 mice using negative selection with eBioscience biotinylated Ab (anti-CD19, B220, NK1.1, gamma-delta TCR) and StemCell technologies streptavidin RapidSphere technology. Once isolated, Tcon were labeled with CFSE (2.5 μM) for 5 minutes at room temperature with constant agitation.
Responder Tcon were provided with 0.75 μg/mL soluble anti-CD3 mAb. […]

[9] = system: in vitro-expanded human Tregs; test: phosphoproteomic screen with human Treg cells; format: cell-based
Description: Utilizing mass spectroscopy, a total of 12,452 phosphorylation sites were quantified from human Tregs. In order to determine significant differences between DMSO-treated and AEB071-treated Tregs, two experiments were performed concurrently: • Forward experiment: This experiment utilized heavy isotope-labeled Tregs treated with AEB071 and medium isotope-labeled Tregs treated with DMSO. • Reverse experiment: medium isotope-labeled Tregs treated with AEB071 and heavy isotope-labeled Tregs treated with DMSO.
After processing the raw spectra with Max Quant software, the positively identified phosphopeptides were analyzed using Persus software. Contaminating peptides and reverse database hits were filtered out and the peptide intensity values and normalized H/M ratios were log 2 transformed. The significances of the individual H/M ratios calculated using the Significance B test with a false discovery rate of 0.05 for the forward and reverse experiment separately.
Relying only on the Sig B test, the overlap between the two data sets was low with only 15% overlap. In order to improve the overlap between the two data sets, the data was filtered based on fold change (<1.5), consistency of ratios, phospho site localization probability (<75%), and the MaxQuant score (<75). By filtering the results, the overlap improved to 60%.

[10] = PKC-θ inhibition (AEB071), activated Tregs
[11] = 10 μM AEB071 30 minutes vs DMSO, activated overnight with anti-CD3/28 and IL-2

T1 sequence (Q02111 whole entry): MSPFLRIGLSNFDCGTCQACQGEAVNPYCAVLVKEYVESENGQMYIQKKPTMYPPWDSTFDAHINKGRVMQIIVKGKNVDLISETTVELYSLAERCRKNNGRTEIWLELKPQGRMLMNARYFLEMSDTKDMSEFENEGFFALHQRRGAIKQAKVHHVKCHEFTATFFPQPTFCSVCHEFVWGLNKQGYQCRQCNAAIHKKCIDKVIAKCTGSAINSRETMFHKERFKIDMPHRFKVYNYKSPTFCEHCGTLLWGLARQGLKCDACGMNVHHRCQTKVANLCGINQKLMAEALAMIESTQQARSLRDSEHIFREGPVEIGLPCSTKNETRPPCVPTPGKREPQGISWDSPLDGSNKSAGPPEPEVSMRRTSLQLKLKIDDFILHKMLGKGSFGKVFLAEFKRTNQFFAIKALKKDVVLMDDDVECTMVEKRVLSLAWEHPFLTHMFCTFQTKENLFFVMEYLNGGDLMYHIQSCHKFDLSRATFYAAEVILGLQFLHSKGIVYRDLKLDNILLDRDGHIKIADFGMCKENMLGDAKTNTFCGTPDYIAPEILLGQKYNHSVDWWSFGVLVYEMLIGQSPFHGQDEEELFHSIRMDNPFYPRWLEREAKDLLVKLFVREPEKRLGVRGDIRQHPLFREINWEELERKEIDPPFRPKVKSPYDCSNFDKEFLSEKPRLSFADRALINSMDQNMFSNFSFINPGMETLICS

What does the source list for CN1CCN(c2nc(C3=C(c4c[nH]c5ccccc45)C(=O)NC3=O)c3ccccc3n2)CC1 [AEB071]?
Tcon displacement from APCs [1]: significantly increased; Tcon velocity [1]: significantly increased; expression of Lag3 [2]: augmented expression; expression of Nrp1 [2]: augmented expression; interaction / overlap between vimentin and PKC-θ ([3]; AEB071-pre-treated Tregs after activation vs control): reduced the interaction; PKC-θ localization ([3]; AEB071-pre-treated Tregs after anti-CD3/CD28 activation vs control): dispersed throughout the cell; PKC-θ auto-phosphorylation at Ser676 ([4]; AEB071 treatment, stated by comparison with vimentin siRNA): significantly reduced; Akt phosphorylation at serine 473 (mTORC2-specific site) [4, 10]: reduced; Akt phosphorylation at threonine 308 (mTORC1-specific site) [4, 10]: unaltered; phosphorylation of mTORC2 target FoxO3a [4, 10]: reduced phosphorylation; GVHD severity ([5]; Tregs treated 30 minutes with 10 μM AEB071 vs DMSO-treated Tregs): significantly better; recipient survival / GVHD mortality ([5]; Tregs treated 30 minutes with 10 μM AEB071 vs DMSO-treated Tregs, p=0.0036): significantly increased recipient survival; also recorded: significantly better; Tcon proliferation on D4 after transplant ([5]; mice given AEB071 treated Tregs vs DMSO treated Tregs): significant reduction; surface expression of Lymphocyte activation gene 3 (Lag3) [6, 11]: significantly increased; also recorded: augmented expression; surface expression of Neuropilin-1 (Nrp1) [6, 11]: significantly increased; also recorded: augmented expression; GI homing molecule expression ([6]; AEB071 treatment): did not increase; baseline Treg oxygen consumption rate (OCR) ([7]; time 0-19 min): significantly increased; maximal Treg OCR ([7]; time 53-70 min): significantly increased; Treg function after AEB071-treatment of vimentin siRNA transfected Tregs ([8]; AEB071 added to vimentin siRNA transfected Tregs): did not further augment; effect of AEB071 treatment under antibody blockade of Nrp1 and Lag3 ([8]; in vitro trans-well suppression assays): reduced the effect; number of proteins with significant alterations in phosphorylation sites ([9]; AEB071 vs DMSO treated human Tregs): 72; phosphorylation of adaptor molecule that links PKC-θ to vimentin (RLTPR) ([9]; AEB071 vs DMSO, b140: RLTPR serine 1226, PKC-theta consensus site): reduced phosphorylation
